Assay results: paper PMC12514245, “Impaired migration and lung invasion of human melanoma by a novel small molecule targeting the transmembrane domain of death receptor p75^NTR” (EMBO Molecular Medicine, 2025)
Several values for one entry are separate records, joined by “and”; a condition that tells them apart may be missing. Equal values may be shown once.

Legend:
A875 NT cells = test: Wound healing cell motility assay, A875 NT; format: cell-based, human; conditions: for Wound area (Fold): A875 NT
Experimental: For wound healing assay, cells were grown until confluency and subjected to a wound across the cell mono-layer. Cells were then incubated with serum-free media either with DMSO or a small molecule (with or without 5 µM Q_VD_poH) and imaged at specific time-points. Cell migration is reflected as fold change in wound area over time.

p75^NTR TMD I252A = target: T1, p75^NTR TMD I252A (Homo sapiens, UniProt P08138, I252A); test: AraTM assay, I252A mutant p75NTR TMD; format: cell-based; conditions: for GFP/OD630, p75NTR I252A, Mean: N=3;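 as to GFP/OD630, p75NTR I252A, Mean: 100% is wild-type TMD GFP/OD630 signal without drug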;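 as to GFP/OD630, p75NTR I252A, n1-n3: 100% is wild-type TMD GFP/OD630 signal without drug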
T1 construct: Comparison of wild-type (WT) p75^NTR TMD and I252A, P253G and V254A mutants in the AraTM assay; expressed in transfected cells; host or cells: E. coli AS19 (LPS-negative)
T1 sequence (P08138 250-275 I252A): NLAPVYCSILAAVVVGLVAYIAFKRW

## Oc1ccc(-c2cncc(Nc3ccc(Br)c(Cl)c3)n2)cc1 [Div17E5]
A875 NT cells; 1uM, 3 h, n3
  Wound area (Fold): 0.963 Fold
A875 NT cells; 1uM, 6 h, Mean
  Wound area (Fold): 0.896 Fold
A875 NT cells; 1uM, 6 h, n1
  Wound area (Fold): 0.897 Fold
A875 NT cells; 1uM, 6 h, n2
  Wound area (Fold): 0.884 Fold
A875 NT cells; 1uM, 6 h, n3
  Wound area (Fold): 0.907 Fold
A875 NT cells; 1uM, 9 h, Mean
  Wound area (Fold): 0.858 Fold
A875 NT cells; 1uM, 9 h, n1
  Wound area (Fold): 0.855 Fold
A875 NT cells; 1uM, 9 h, n2
  Wound area (Fold): 0.847 Fold
A875 NT cells; 1uM, 9 h, n3
  Wound area (Fold): 0.872 Fold
A875 NT cells; 1uM, 12 h, Mean
  Wound area (Fold): 0.818 Fold
A875 NT cells; 1uM, 12 h, n1
  Wound area (Fold): 0.819 Fold
A875 NT cells; 1uM, 12 h, n2
  Wound area (Fold): 0.796 Fold
A875 NT cells; 1uM, 12 h, n3
  Wound area (Fold): 0.839 Fold
A875 NT cells; 1uM, 15 h, Mean
  Wound area (Fold): 0.788 Fold
A875 NT cells; 1uM, 15 h, n1
  Wound area (Fold): 0.792 Fold
A875 NT cells; 1uM, 15 h, n2
  Wound area (Fold): 0.758 Fold
A875 NT cells; 1uM, 15 h, n3
  Wound area (Fold): 0.814 Fold
A875 NT cells; 1uM, 18 h, Mean
  Wound area (Fold): 0.765 Fold
A875 NT cells; 1uM, 18 h, n1
  Wound area (Fold): 0.775 Fold
A875 NT cells; 1uM, 18 h, n2
  Wound area (Fold): 0.730 Fold
A875 NT cells; 1uM, 18 h, n3
  Wound area (Fold): 0.790 Fold
A875 NT cells; 1uM, 21 h, Mean
  Wound area (Fold): 0.730 Fold
A875 NT cells; 1uM, 21 h, n1
  Wound area (Fold): 0.735 Fold
A875 NT cells; 1uM, 21 h, n2
  Wound area (Fold): 0.696 Fold
A875 NT cells; 1uM, 21 h, n3
  Wound area (Fold): 0.758 Fold
A875 NT cells; 1uM, 24 h, Mean
  Wound area (Fold): 0.705 Fold
A875 NT cells; 1uM, 24 h, n1
  Wound area (Fold): 0.708 Fold
A875 NT cells; 1uM, 24 h, n2
  Wound area (Fold): 0.669 Fold
A875 NT cells; 1uM, 24 h, n3
  Wound area (Fold): 0.737 Fold
A875 NT cells; 2uM, 0 h, Mean
  Wound area (Fold): 1.000 Fold
A875 NT cells; 2uM, 0 h, n1
  Wound area (Fold): 0.9445 Fold
A875 NT cells; 2uM, 0 h, n2
  Wound area (Fold): 1.024 Fold
A875 NT cells; 2uM, 0 h, n3
  Wound area (Fold): 1.031 Fold
A875 NT cells; 2uM, 3 h, Mean
  Wound area (Fold): 0.936 Fold
A875 NT cells; 2uM, 3 h, n1
  Wound area (Fold): 0.9336 Fold
A875 NT cells; 2uM, 3 h, n2
  Wound area (Fold): 0.9313 Fold
A875 NT cells; 2uM, 3 h, n3
  Wound area (Fold): 0.9444 Fold
A875 NT cells; 2uM, 6 h, Mean
  Wound area (Fold): 0.874 Fold
A875 NT cells; 2uM, 6 h, n1
  Wound area (Fold): 0.8802 Fold
A875 NT cells; 2uM, 6 h, n2
  Wound area (Fold): 0.851 Fold
A875 NT cells; 2uM, 6 h, n3
  Wound area (Fold): 0.8894 Fold
A875 NT cells; 2uM, 9 h, Mean
  Wound area (Fold): 0.841 Fold
A875 NT cells; 2uM, 9 h, n1
  Wound area (Fold): 0.8687 Fold
A875 NT cells; 2uM, 9 h, n2
  Wound area (Fold): 0.7852 Fold
A875 NT cells; 2uM, 9 h, n3
  Wound area (Fold): 0.8693 Fold
A875 NT cells; 2uM, 12 h, Mean
  Wound area (Fold): 0.798 Fold
A875 NT cells; 2uM, 12 h, n1
  Wound area (Fold): 0.822 Fold
A875 NT cells; 2uM, 12 h, n2
  Wound area (Fold): 0.7423 Fold
A875 NT cells; 2uM, 12 h, n3
  Wound area (Fold): 0.8308 Fold
A875 NT cells; 2uM, 15 h, Mean
  Wound area (Fold): 0.764 Fold
A875 NT cells; 2uM, 15 h, n1
  Wound area (Fold): 0.7994 Fold
A875 NT cells; 2uM, 15 h, n2
  Wound area (Fold): 0.707 Fold
A875 NT cells; 2uM, 15 h, n3
  Wound area (Fold): 0.7869 Fold
A875 NT cells; 2uM, 18 h, Mean
  Wound area (Fold): 0.723 Fold
A875 NT cells; 2uM, 18 h, n1
  Wound area (Fold): 0.7549 Fold
A875 NT cells; 2uM, 18 h, n2
  Wound area (Fold): 0.6745 Fold
A875 NT cells; 2uM, 18 h, n3
  Wound area (Fold): 0.7404 Fold
A875 NT cells; 2uM, 21 h, Mean
  Wound area (Fold): 0.674 Fold
A875 NT cells; 2uM, 21 h, n1
  Wound area (Fold): 0.6977 Fold
A875 NT cells; 2uM, 21 h, n2
  Wound area (Fold): 0.6158 Fold
A875 NT cells; 2uM, 21 h, n3
  Wound area (Fold): 0.7086 Fold
A875 NT cells; 2uM, 24 h, Mean
  Wound area (Fold): 0.637 Fold
A875 NT cells; 2uM, 24 h, n1
  Wound area (Fold): 0.6671 Fold
A875 NT cells; 2uM, 24 h, n2
  Wound area (Fold): 0.5815 Fold
A875 NT cells; 2uM, 24 h, n3
  Wound area (Fold): 0.6623 Fold
A875 NT cells; low micromolar and submicromolar concentrations
  wound healing assay: totally inactive
p75^NTR TMD I252A
  effect of Ile252 mutation on compound activity in AraTM assay: abolished
p75^NTR TMD I252A; Div17E5 7.5 uM
  GFP/OD630, p75NTR I252A, n1-n3: 99% and 104% and 92%
  GFP/OD630, p75NTR I252A, Mean: 98%
p75^NTR TMD I252A; Div17E5 15 uM
  GFP/OD630, p75NTR I252A, n1-n3: 98% and 107% and 87%
  GFP/OD630, p75NTR I252A, Mean: 97%
p75^NTR TMD I252A; Div17E5 20 uM
  GFP/OD630, p75NTR I252A, n1-n3: 96% and 91% and 100%
  GFP/OD630, p75NTR I252A, Mean: 96%
p75^NTR TMD I252A; Div17E5 50 uM
  GFP/OD630, p75NTR I252A, n1-n3: 99% and 106% and 92%
  GFP/OD630, p75NTR I252A, Mean: 99%
